For experiment [1], the target named is Human NMT1 (HsNMT1) (Homo sapiens, UniProt P30419). Nature of the experiment: biochemical.
Experiment [2] deals with Plasmodium vivax (Pv) NMT (Plasmodium vivax (strain Salvador I), UniProt A5K1A2). Nature of the experiment: biochemical.
For experiment [3], the system named is Plasmodium falciparum 3D7. The experiment can be described thus: SYBR Green assay, Plasmodium falciparum strain 3D7. In kind it is cell-based. The note with it: P. falciparum strain 3D7, 96 h incubation, read-out: Pf EC50 strain 3D7.
Protocol: Assay (g): SYBR Green Assay
EC50 values for Plasmodium falciparum (Pf) NMT strain 3D7 or NF54 were measured for certain compounds of the invention using an assay utilising SYBR Green dye. The assay for NMT strain 3D7 was carried out as follows:
Synchronous Plasmodium falciparum 3D7 late stage trophozoites at 33-36 h were used. Final parasitemia and haematocrit were between 0.1-0.2% and 2% respectively. Red blood cells used for the assay were centrifuged to remove the buffy coat and washed twice in Roswell Park Memorial Institute (RPMI) Media 1640 so that no white blood cells were present. The culture medium contained RPMI 1640 with 5 g/L Albumax, 0.025 g/L gentamycin and 0.292 g/L L-glutamine.
Sterile 96 well black tissue culture plates (Costar) were used routinely for every assay. […] Chloroquine was used as a standard with ten times reduced concentrations range as above. Two sets of control were used in duplicate wells, one set with no added compound of the invention or standard (positive control) and one with uninfected red blood cells (negative control).
The plates were incubated at 37° C. for 48 h in a gas chamber flushed with 5% CO2, 5% O2 and 90% N2. After 48 h supernatants were taken out from each well and replaced with fresh drug and incubated for a further 48 h in the same manner. At the end of the 96 h incubation, 25 μL of SYBR Green I dye (SYBR Green I nucleic acid gel stain 10,000×, in DMSO from Invitrogen) in lysis buffer (1 μL dye to 1 mL lysis buffer) was added to each well and stored overnight at −20° C. The lysis buffer contained Tris (20 mM, pH 8.0), EDTA (2 mM), Saponin (0.16%) and Triton X-100 (1.6% v/v).
Plates were warmed to room temperature and fluorescence intensity was measured with a FLUOstar Omega Microplate fluorescence reader (BMG Labtech). Values were expressed in relative fluorescence units. Binding of SYBR Green is specific for parasite DNA as mature erythrocytes lack DNA and RNA. Fluorescence intensity unit was converted to percentage (%) of growth as follows:
% growth=(culture under drug)−(uninfected RBC)/(culture with no drug)−(uninfected RBC)×100
and the EC50 value was determined.
The test system of experiment [4] is SU-DHL-10 cells. Nature of the experiment: Cell cytotoxicity in SU-DHL-10 cell line (CellTiter-Glo). In kind it is cell-based. Conditions: Homo sapiens, read-out: SU-DHL-10 EC50. The method, then: Assay (c): Cell Cytotoxicity in SU-DHL-10 Cell Line
Cell Culture: SU-DHL-10 (ATCC CRL-2963) were cultured in RPMI-media (ATCC, 30-2001).
Cultures were maintained by the addition of fresh medium and inoculum of 8.0×10^4 to 2.0×10^5 cells/mL. Subculturing was done when the cell density was between 1.0×10^6 and 2.0×10^6 cells/mL.
Cell seeding: 5000 cells/well were plated in 384-white clear bottom plates (Greiner, 781098) for the assay in 20 μl growth media.
Top dose: 1 mM stocks of each compound was prepared in 100% DMSO and thereafter diluted 333.33 fold in growth media to obtain 3 μM (0.3% DMSO) mid stock of each compound, from which 10 μl was added to assay wells (with 20 μl cells) for a final concentration of 1 μM (0.1% DMSO). For subsequent dose-response: 1 mM stock was diluted 3 fold in DMSO before subjecting to above dilution pattern to obtain final 0.1% DMSO concentration.
Treatment: Cells were incubated with the compounds for 48 h at 37° C. in presence of 5% CO2.
Assay Procedure: The assay plate and its contents were equilibrated at room temperature for approximately 30 minutes. CellTiter-Glo® Reagent was added equal to the volume (1;1) of cell culture medium present in each well. The contents were mixed for 5 minutes on an orbital shaker to induce cell lysis. The plate was allowed to incubate at room temperature for 10 minutes to stabilize luminescent signal. The luminescence was recorded with an integration time of 0.25 seconds in EnVision 2104 Multilabel Plate Reader (Perkin Elmer).
Calculation: % Cytotoxicity was calculated considering 100% cell death in wells treated with 0.1% TritonX.
For orientation: Cellular ATP, detected with luciferase, serves as a proxy for viable cell number.

The values that follow come from patent US20240166643A1, “IMIDAZO[1,2-A]PYRIDINE COMPOUNDS AND THEIR USE IN THERAPY” (Imperial College Innovations Limited, priority 2020, published 2024).

For orientation: IC50 means the point on the concentration scale where inhibition reaches its midpoint. Broadly, the EC50 is the concentration at which the effect is half-maximal.

Structures are written as SMILES. Like-named read-outs stand apart in the source and are kept apart here. Some results are limits rather than exact numbers.

Chain of Human NMT1 (HsNMT1) (P30419 whole entry, looked up): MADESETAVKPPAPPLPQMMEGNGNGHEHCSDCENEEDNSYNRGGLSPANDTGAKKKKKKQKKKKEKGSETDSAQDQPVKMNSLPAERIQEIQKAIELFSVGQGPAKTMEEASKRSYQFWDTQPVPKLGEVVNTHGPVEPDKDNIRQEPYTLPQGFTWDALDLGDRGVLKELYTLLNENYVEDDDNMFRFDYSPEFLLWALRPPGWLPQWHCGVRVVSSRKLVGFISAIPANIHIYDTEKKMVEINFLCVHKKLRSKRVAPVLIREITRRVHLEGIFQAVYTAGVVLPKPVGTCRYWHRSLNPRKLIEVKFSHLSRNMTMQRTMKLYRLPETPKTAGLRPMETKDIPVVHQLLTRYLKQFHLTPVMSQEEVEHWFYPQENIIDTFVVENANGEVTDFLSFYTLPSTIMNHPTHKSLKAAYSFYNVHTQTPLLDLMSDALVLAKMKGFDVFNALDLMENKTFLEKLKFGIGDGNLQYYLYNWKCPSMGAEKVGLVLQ
Chain of Plasmodium vivax (Pv) NMT (A5K1A2 1-410): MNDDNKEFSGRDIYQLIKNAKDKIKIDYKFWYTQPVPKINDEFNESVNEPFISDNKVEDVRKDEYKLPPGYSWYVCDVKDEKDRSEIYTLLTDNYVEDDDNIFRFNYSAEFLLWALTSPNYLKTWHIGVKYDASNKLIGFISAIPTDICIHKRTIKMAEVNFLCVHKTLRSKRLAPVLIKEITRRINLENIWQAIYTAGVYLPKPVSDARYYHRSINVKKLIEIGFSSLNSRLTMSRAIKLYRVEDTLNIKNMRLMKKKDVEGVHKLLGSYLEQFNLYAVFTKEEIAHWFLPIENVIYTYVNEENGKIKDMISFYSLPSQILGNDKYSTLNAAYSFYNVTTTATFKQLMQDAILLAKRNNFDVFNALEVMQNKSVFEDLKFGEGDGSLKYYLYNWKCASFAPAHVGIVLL

With `C[C@@H]1CN(c2ncc(F)c(N3CC(C)(C(=O)NC(C)(C)c4cnc5ccccn45)C3)n2)CCN1C` [Example 87, 1-{2-[(3R)-3,4-dimethylpiperazin-1-yl]-5-fluoropyrimidin-4-yl}-N-(2-{imidazo[1,2-a]pyridin-3-yl}propan-2-yl)-3-methylazetidine-3-carboxamide], the IC50 came to 150 nM in experiment [1] and 38 nM in experiment [2]. Further, in experiment [3], the half-maximal effective concentration (EC50) was more than 760 nM.

For `C[C@@H]1CN(c2ncc(Cl)c(N3CC(C(=O)NC(C)(C)c4cnc5ccccn45)C3)n2)C[C@@H](C)N1C` [Example 92, 1-{5-chloro-2-[(3R,5R)-3,4,5-trimethylpiperazin-1-yl]pyrimidin-4-yl}-N-(2-{imidazo[1,2-a]pyridin-3-yl}propan-2-yl)azetidine-3-carboxamide], the IC50 in experiment [1] came out at 55 nM; in experiment [2], 41 nM. Besides, in experiment [3], the EC50 came out at 260 nM.

With `C[C@@H]1CN(c2ncc(F)c(N3CC(C(=O)NC(C)(C)c4cnc5ccccn45)C3)n2)C[C@@H](C)N1C` [Example 93, 1-{5-fluoro-2-[(3R,5R)-3,4,5-trimethylpiperazin-1-yl]pyrimidin-4-yl}-N-(2-{imidazo[1,2-a]pyridin-3-yl}propan-2-yl)azetidine-3-carboxamide], the values for the IC50 in experiment [1] and in experiment [2] were 250 nM and 59 nM, respectively. In addition, the EC50 in experiment [3] was 860 nM.

Consider `Cc1ccc2ncc(C(C)(C)NC(=O)C3CN(c4nc(N5CCN(C)[C@H](C)C5)ncc4F)C3)n2c1` [Example 97, 1-{2-[(3R)-3,4-dimethylpiperazin-1-yl}-5-fluoropyrimidin-4-yl}-N-(2-{6-methylimidazo[1,2-a]pyridin-3-yl}propan-2-yl)azetidine-3-carboxamide], for which the figures for the half-maximal inhibitory concentration (IC50) in experiment [1] and in experiment [2] were 25.7 nM and 4.9 nM, respectively. For the same compound, in experiment [3], the EC50 was 69 nM.

For `Cc1ccc2ncc(C(C)(C)NC(=O)C3CN(c4nc(N5CCN(C)[C@H](C)C5)ncc4Cl)C3)n2c1` [Example 98, 1-{5-chloro-2-[(3R)-3,4-dimethylpiperazin-1-yl]pyrimidin-4-yl}-N-(2-{6-methylimidazo[1,2-a]pyridin-3-yl}propan-2-yl)azetidine-3-carboxamide], the IC50 came to 5.4 nM in experiment [1] and 5.8 nM in experiment [2]. In addition, the EC50 in experiment [3] was 7 nM.

Turning to `CN1CCCN(c2nc(N3CC(C(=O)NC(C)(C)c4cnc5ccccn45)C3)c3ccsc3n2)CC1` [Example 113, N-(2-(imidazo[1,2-a]pyridin-3-yl)propan-2-yl)-1-(2-(4-methyl-1,4-diazepan-1-yl)thieno[2,3-d]pyrimidin-4-yl)azetidine-3-carboxamide], the EC50 in experiment [4] (SU-DHL10, CellTiter-Glo, 48 h) amounted to 33 nM. This compound also gave an IC50 in experiment [1] of 5 nM.

With `CN1CCCN(c2nc3c(c(N4CC(C(=O)NC(C)(C)c5cnc6ccccn56)C4)n2)CCC3)CC1` [Example 114, N-(2-(imidazo[1,2-a]pyridin-3-yl)propan-2-yl)-1-(2-(4-methyl-1,4-diazepan-1-yl)-6,7-dihydro-5H-cyclopenta[d]pyrimidin-4-yl)azetidine-3-carboxamide], the EC50 in experiment [4] (SU-DHL10, CellTiter-Glo, 48 h) was determined as 65 nM.

With `Cc1nc(N2CCCN(C)CC2)nc(N2CC(C(=O)NC(C)(C)c3cnc4ccccn34)C2)c1Cl` [Example 115, 1-(5-chloro-6-methyl-2-(4-methyl-1,4-diazepan-1-yl)pyrimidin-4-yl)-N-(2-(imidazo[1,2-a]pyridin-3-yl)propan-2-yl)azetidine-3-carboxamide], the EC50 in experiment [4] (SU-DHL10, CellTiter-Glo, 48 h) was 54 nM.

In the case of `Cc1cc2nc(N3CCCN(C)CC3)nc(N3CC(C(=O)NC(C)(C)c4cnc5ccccn45)C3)c2s1` [Example 116, N-(2-(imidazo[1,2-a]pyridin-3-yl)propan-2-yl)-1-(6-methyl-2-(4-methyl-1,4-diazepan-1-yl)thieno[3,2-d]pyrimidin-4-yl)azetidine-3-carboxamide], the concentration giving a half-maximal response (EC50) in experiment [4] (SU-DHL10, 48 h) was found to be 74 nM. Also, the IC50 in experiment [1] was found to be 6 nM.

With `Cc1cc2c(N3CC(C(=O)NC(C)(C)c4cnc5ccccn45)C3)nc(N3CCCN(C)CC3)nc2s1` [Example 117, N-(2-(imidazo[1,2-a]pyridin-3-yl)propan-2-yl)-1-(6-methyl-2-(4-methyl-1,4-diazepan-1-yl)thieno[2,3-d]pyrimidin-4-yl)azetidine-3-carboxamide], the EC50 in experiment [4] (SU-DHL10, CellTiter-Glo, 48 h) turned out to be 66 nM. In experiment [1], the IC50 amounted to 6 nM.

For the compound `CN(C(=O)C1CN(c2nc(N3CCNCC3)ncc2Cl)C1)C(C)(C)c1cnc2ccccn12` [Example 119, 1-(5-chloro-2-(piperazin-1-yl)pyrimidin-4-yl)-N-(2-(imidazo[1,2-a]pyridin-3-yl)propan-2-yl)-N-methylazetidine-3-carboxamide], the EC50 in experiment [4] (SU-DHL10, CellTiter-Glo, 48 h) was 925 nM.

Take `CN(C(=O)C1CN(c2nc(N3CCCNCC3)ncc2Cl)C1)C(C)(C)c1cnc2ccccn12` [Example 120, 1-(5-chloro-2-(1,4-diazepan-1-yl)pyrimidin-4-yl)-N-(2-(Imidazo[1,2-a]pyridin-3-yl)propan-2-yl)-N-methylazetidine-3-carboxamide]: the EC50 in experiment [4] (SU-DHL10, CellTiter-Glo, 48 h) stood at 545 nM.

As to `CN1CCCN(c2ncc(Cl)c(N3CC(C(=O)N(C)C(C)(C)c4cnc5ccccn45)C3)n2)CC1` [Example 121, 1-(5-chloro-2-(4-methyl-1,4-diazepan-1-yl)pyrimidin-4-yl)-N-(2-(Imidazo[1,2-a]pyridin-3-yl)propan-2-yl)-N-methylazetidine-3-carboxamide], the 50% effective concentration (EC50) in experiment [4] (SU-DHL10, CellTiter-Glo, 48 h) came out at 42 nM. In experiment [1], this compound had an IC50 of 4 nM.

In the case of `CN1CCCN(c2nc(N3CC(C(=O)N(C)C(C)(C)c4cnc5ccccn45)C3)c3sccc3n2)CC1` [Example 122, N-(2-(imidazo[1,2-a]pyridin-3-yl)propan-2-yl)-N-methyl-1-(2-(4-methyl-1,4-diazepan-1-yl)thieno[3,2-d]pyrimidin-4-yl)azetidine-3-carboxamide], in experiment [4] (SU-DHL10, CellTiter-Glo, 48 h), the EC50 came out at 50 nM. Further, in experiment [1], half-maximal inhibition (IC50) required 4 nM.

As for `C[C@@H]1CN(c2ncc(Cl)c(N3CC(C(=O)N(C)C(C)(C)c4cnc5ccccn45)C3)n2)CCN1` [Example 124, (R)-1-(5-chloro-2-(3-methylpiperazin-1-yl)pyrimidin-4-yl)-N-(2-(Imidazo[1,2-a]pyridin-3-yl)propan-2-yl)-N-methylazetidine-3-carboxamide], the half-maximal effective concentration (EC50) in experiment [4] (SU-DHL10, CellTiter-Glo, 48 h) came out at 448 nM.

In the case of `C[C@H]1CNCCN1c1nc(N2CC(C(=O)N(C)C(C)(C)c3cnc4ccccn34)C2)c2sccc2n1` [Example 125, (S)—N-(2-(imidazo[1,2-a]pyridin-3-yl)propan-2-yl)-N-methyl-1-(2-(2-methylpiperazin-1-yl)thieno[3,2-d]pyrimidin-4-yl)azetidine-3-carboxamide], the EC50 in experiment [4] (SU-DHL10, CellTiter-Glo, 48 h) was determined as 361 nM.

`C[C@H]1CNCCN1c1nc(N2CC(C(=O)NC(C)(C)c3cnc4ccccn34)C2)c2sccc2n1` [Example 126, (S)—N-(2-(Imidazo[1,2-a]pyridin-3-yl)propan-2-yl)-1-(2-(2-methylpiperazin-1-yl)thieno[3,2-d]pyrimidin-4-yl)azetidine-3-carboxamide]: the EC50 in experiment [4] (SU-DHL10, CellTiter-Glo, 48 h) came out at 265 nM. In experiment [1], inhibition was half-maximal at 5 nM (IC50).

`CN(C(=O)C1CN(c2nc(N3CCNC(C)(C)C3)ncc2Cl)C1)C(C)(C)c1cnc2ccccn12` [Example 127, 1-(5-chloro-2-(3,3-dimethylpiperazin-1-yl)pyrimidin-4-yl)-N-(2-(Imidazo[1,2-a]pyridin-3-yl)propan-2-yl)-N-methylazetidine-3-carboxamide]: the concentration giving a half-maximal response (EC50) in experiment [4] (SU-DHL10, CellTiter-Glo, 48 h) was determined as 609 nM.

`CN(C(=O)C1CN(c2nc(N3CCNC4(CC4)C3)ncc2Cl)C1)C(C)(C)c1cnc2ccccn12` [Example 130, 1-(5-chloro-2-(4,7-diazaspiro[2.5]octan-7-yl)pyrimidin-4-yl)-N-(2-(imidazo[1,2-a]pyridin-3-yl)propan-2-yl)-N-methylazetidine-3-carboxamide]: the EC50 in experiment [4] (SU-DHL10, CellTiter-Glo, 48 h) turned out to be 547 nM. The same compound yielded an IC50 in experiment [1] of 54 nM.

Consider `C[C@H]1CN(c2ncc(Cl)c(N3CC(C(=O)N(C)C(C)(C)c4cnc5ccccn45)C3)n2)CCN1` [Example 139, (S)-1-(5-chloro-2-(3-methylpiperazin-1-yl)pyrimidin-4-yl)-N-(2-(Imidazo[1,2-a]pyridin-3-yl)propan-2-yl)-N-methylazetidine-3-carboxamide], for which the EC50 in experiment [4] (SU-DHL10, CellTiter-Glo, 48 h) is 542 nM.

Turning to `CN(C(=O)C1CN(c2nc(N3CCNCC3(C)C)ncc2Cl)C1)C(C)(C)c1cnc2ccccn12` [Example 149, 1-(5-chloro-2-(2,2-dimethylpiperazin-1-yl)pyrimidin-4-yl)-N-(2-(Imidazo[1,2-a]pyridin-3-yl)propan-2-yl)-N-methylazetidine-3-carboxamide], in experiment [4] (SU-DHL10, CellTiter-Glo, 48 h), the EC50 was 145 nM.

Regarding `CN(C(=O)C1CN(c2nc(N3CCNCC34CC4)ncc2Cl)C1)C(C)(C)c1cnc2ccccn12` [Example 150, 1-(5-chloro-2-(4,7-diazaspiro[2.5]octan-4-yl)pyrimidin-4-yl)-N-(2-(imidazo[1,2-a]pyridin-3-yl)propan-2-yl)-N-methylazetidine-3-carboxamide], in experiment [4] (SU-DHL10, CellTiter-Glo, 48 h), the EC50 was more than 1000 nM.
